Results: publication PMC9570898, “Comparing Variants of the Cell-Penetrating Peptide sC18 to Design Peptide-Drug Conjugates” (Molecules, 2022)
Residues, ends and D or L forms follow the SMILES beside them. No end group written: not given here. *: point of attachment. X1 = COc1cccc2c1C(=O)c1c(O)c3c(c(O)c1C2=O)C[C@@](O)(C(=O)CO)C[C@@H]3O[C@H]1C[C@H](NC(=O)CCN2C(=O)CC(*)C2=O)[C@H](O)[C@H](C)O1

Tests used:
HeLa cells [1] = test: Cytotoxicity (resazurin) assay in HeLa cells; settings: 24 h; for EC50: 37 °C, 2.5-70 µM, Dox data not shown
Method: For cell viability assay, cells were (15,000 HeLa, 17,000 MCF-7 and 12,000 HFF-1 cells per well) seeded onto a 96-well plate and grown to 80–90% confluency. Cells were incubated with several peptide concentrations in a serum-free growth medium for 24 h under standard growth conditions. For the positive control, cells were treated with 70% EtOH for 7 min. After washing with DPBS, resazurin solution (10% in serum-free media, v/v) was incubated with the cells for 1 h under standard growth conditions. The cell viability was determined relative to untreated cells by measurement of the resorufin product at 595 nm (λex = 550 nm) on a Tecan infinite M200 plate reader (Tecan Group AG, Männedorf, Switzerland).
Figure 2 (A,B): Cytotoxicity profiles of the peptides in HeLa and HEK-293 cells. Cells were cultured and incubated at pH 7.4 for 24 h with different concentrations of peptide solutions. Untreated cells served as negative control; cells treated with 70% ethanol as positive control. Values from the positive control were subtracted from all data, and the untreated cells were set to 100%; assays were performed with n = 3 in triplicate. (C): Flow cytometry analysis of HeLa or HEK-293 cells after incubating 1 and 10 µM peptide solutions for 30 min at 37 °C; assays were conducted in triplicate n = 3. (D): Confocal laser scanning microscopy analysis of 10 µM CF-labeled peptides after 30 min of incubation in HeLa cells. Green: CF-labeled peptides; blue: Hoechst 33342 nuclear stain; scale bar is 10 µm.
Figure 5 (A): Cytotoxicity assay using HFF-1 cells. Different PDC concentrations were incubated with the cells for 24 h at 37 °C and a resazurin assay was conducted. (B): Dose-response curves for peptide drug conjugates were obtained using the resazurin assay. For this, HeLa cells were treated with various conjugate concentrations (2.5–70 µM) for 24 h at 37 °C. (C): Quantification of PDC internalization in HeLa cells; 10 µM PDC solutions were incubated with cells for 30 min at 37 °C and cells were inspected using a flow cytometer; assays were conducted in triplicate n = 3.

HFF-1 cells = test: Cytotoxicity (resazurin) assay in HFF-1 cells; format: cell-based, human; settings: 24 h treatment, different concentrations, lowest viability reached
HeLa cells [2] = test: Fluorescence microscopy of intracellular distribution in HeLa cells; format: cell-based, human; settings: 30 min; for intracellular distribution of PDC: 5 µM conjugate, 37 °C, fluorescence microscopy; for intracellular accumulation / uptake pattern: 10 µM CF-labeled peptide, confocal fluorescence microscopy
Method: Cells were seeded into 8-well plates (HeLa cells 35,000 and HFF-1 25,000 cells per well, respectively) and grown to 80–90% confluency. Cells were treated with 10 μM CF- or dox-labeled peptides in a serum-free medium for 30 min at 37 °C. Ten minutes prior to the end of the incubation time, nuclei were stained with Hoechst33342. The peptide solution was removed, and cells were washed five times with PBS and covered with fresh medium including FBS. Microscopic analysis was performed using an inverse confocal TCS SP8 microscope (Leica Microsystems, Wetzlar, Germany), equipped with a 63× oil-immersion objective. Images were recorded with LAS X software (LAS_X_Core_3.7.6_25997, Leica Microsystems, Wetzlar, Germany). For the GUV analysis and the uptake of the peptide-drug conjugates the Keyence fluorescence tabletop microscope BZ-X800E (Keyence, Osaka, Japan), with a 60× oil immersion lens was used. Images were recorded with Keyence software (BZ-800X_Analyzer 1.1.1.8, Keyence, Osaka: Japan) and evaluated with Fiji.
Figure 6 Fluorescence microscope analysis of 5 µM conjugates after 30 min of incubation at 37 °C in HeLa and HFF-1 cells. Red: peptides coupled to red fluorophore Doxorubicin; blue: Hoechst 33342 nuclear stain; BF: brightfield to identify living cells; scale bar is 20 µm.

HeLa cells [3] = test: Cellular uptake by flow cytometry in HeLa cells; format: cell-based, human; settings: 30 min; for cellular uptake: 1 and 10 µM CF-labeled peptide, 37 °C, serum-free medium
Method: (§1) Monolayer cellular uptake was quantified using flow cytometry. Cells were seeded onto a 24-well plate (HeLa: 90,000, HEK293: 100,000 and MCF-7 130,000 cells per well) and grown to 80–90% confluency. Then, cells were incubated with the labeled peptides/conjugates in a serum-free medium at 37 °C for various incubation times, and subsequently washed twice with PBS and detached with indicator-free trypsin resuspended in an indicator-free serum-containing medium. The cell suspension was transferred into a 96-well FACS plate and fluorescence was then measured by a Guava easyCyte flow cytometer (Merck, Darmstadt, Germany).The blue laser was used for all measurements, FSC (1137–1538), SSC (3020–4086), Grn-B (647–875) and Red-B (694–939). Cellular autofluorescence of untreated control cells was subtracted.

HEK-293 spheroids = test: Flow cytometry of HEK-293 spheroids; format: cell-based, human; settings: 10 µM CF-labeled peptides, 30 min or 1 h
Method: For the preparation and seeding of spheroids, cells were washed and trypsinized as described above. Cells were transferred into a fresh 15 mL centrifuge tube and centrifuged for 5 min at 300× g and rt. The supernatant was removed carefully and the pellet was resuspended in an appropriate medium supplemented with FBS. Cells were counted and a cell mixture was prepared, which would be sufficient for 100 drops (3 mL). Within this mixture a total amount of 1.5 × 10^6 cells (HEK-293 and HeLa cells) and 20% (v/v) methylcellulose (1.2 mg/mL) were required. The missing volume was filled up with an appropriate medium containing FBS; 30 μL drops were pipetted into the inverted lid of a petri dish (15,000 cells per drop), the bottom was covered with PBS and spheroids were grown in hanging drops for two or three days at 37 °C and 5% CO2, respectively.
For flow cytometry studies with tumor spheroids, the spheroids were prepared and grown as described above (4.7). […] After the spheroids started to fall apart, 850 μL of medium with FBS (indicator free) was added and the spheroids were resuspended to generate a homogenous cell suspension; 200 μL of each sample were transferred into a fresh round-bottom 96-well plate and analyzed on a Guava® easyCyte flow cytometer (Merck, Darmstadt, Germany). […]

MCF-7 cells = test: Cell viability (resazurin) assay in MCF-7 cells at pH 7.4 or 6.8; format: cell-based, human; settings: MCF-7 cells cultivated at pH 7.4 or 6.8, 24 h, various concentrations, triplicate n = 3
Method: For pH-dependent studies, the cells were cultivated and incubated at pH 6.8 or 7.4, respectively.
Figure 1 (A,B): Cell-viability assays using MCF-7 cells. Cells were cultivated at pH 7.4 or pH 6.8, respectively, for 24 h using different concentrations of peptide solutions. […] (C): Cellular uptake of histidine peptides in MCF-7 cells.

HEK293 cells = test: Cellular uptake by flow cytometry in HEK293 cells; format: cell-based, human; settings: 1 and 10 µM CF-labeled peptide, 30 min, 37 °C, serum-free medium
Method: as §1

[4] = triplicate n = 3, listed as sC18^ΔE

COc1cccc2c1C(=O)c1c(O)c3c(c(O)c1C2=O)C[C@@](O)(C(=O)CO)C[C@@H]3O[C@H]1C[C@H](N)[C@H](O)[C@H](C)O1.Cl [Dox, doxorubicin hydrochloride, reference compound]
EC50 (HeLa cells [1]; resazurin assay): 6.78 µM
cell viability (HFF-1 cells): 72%

CC[C@H](C)[C@H](NC(=O)[C@H](CCCCN)NC(=O)[C@H](CC(N)=O)NC(=O)[C@H](CCCNC(=N)N)NC(=O)[C@H](Cc1ccccc1)NC(=O)[C@H](CCCCN)NC(=O)[C@H](CCCNC(=N)N)NC(=O)[C@H](CC(C)C)NC(=O)[C@H](CCCNC(=N)N)NC(=O)[C@H](CCCCN)NC(=O)[C@H](CCCNC(=N)N)NC(=O)[C@H](CC(C)C)NC(=O)CNC(=O)[C@@H](N)CSC1CC(=O)N(CCC(=O)N[C@H]2C[C@H](O[C@H]3C[C@](O)(C(=O)CO)Cc4c(O)c5c(c(O)c43)C(=O)c3c(OC)cccc3C5=O)O[C@@H](C)[C@H]2O)C1=O)C(=O)N[C@@H](CCCCN)C(=O)N[C@@H](CCC(=O)O)C(=O)N[C@@H](CCCCN)C(N)=O (stereo partly drawn) [PDC-1] (H-C(X1)GLRKRLRKFRNKIKEK-NH2)
intracellular distribution of PDC (HeLa cells [2]): more fluorescence was also measured within the nuclei
EC50 (HeLa cells [1]; resazurin assay): 15.3 µM

CC[C@H](C)[C@H](NC(=O)[C@H](CCCCN)NC(=O)[C@H](CC(N)=O)NC(=O)[C@H](CCCNC(=N)N)NC(=O)[C@H](Cc1ccccc1)NC(=O)[C@H](CCCCN)NC(=O)[C@H](CCCNC(=N)N)NC(=O)[C@H](CC(C)C)NC(=O)[C@H](CCCNC(=N)N)NC(=O)[C@H](CCCCN)NC(=O)[C@H](CCCNC(=N)N)NC(=O)[C@H](CC(C)C)NC(=O)CNC(=O)[C@@H](N)CSC1CC(=O)N(CCC(=O)N[C@H]2C[C@H](O[C@H]3C[C@](O)(C(=O)CO)Cc4c(O)c5c(c(O)c43)C(=O)c3c(OC)cccc3C5=O)O[C@@H](C)[C@H]2O)C1=O)C(=O)N[C@@H](CCCCN)C(=O)N[C@@H](CCCCN)C(N)=O (stereo partly drawn) [PDC-2] (H-C(X1)GLRKRLRKFRNKIKK-NH2)
intracellular distribution of PDC (HeLa cells [2]): clustering inside the cytosol
PDC internalization (HeLa cells [3]; 5 µM PDC (text; legend of Figure 5C: 10 µM), doxorubicin red fluorescence): enhanced compared to the other two
EC50 (HeLa cells [1]; resazurin assay): 14.5 µM

COc1cccc2c1C(=O)c1c(O)c3c(c(O)c1C2=O)C[C@@](O)(C(=O)CO)C[C@@H]3O[C@H]1C[C@H](NC(=O)CCN2C(=O)CC(SC[C@H](N)C(=O)NCC(=O)N[C@@H](CC(C)C)C(=O)N[C@@H](CCCNC(=N)N)C(=O)N[C@@H](CCCCN)C(=O)N[C@@H](CCCNC(=N)N)C(=O)N[C@@H](CC(C)C)C(=O)N[C@@H](CCCNC(=N)N)C(=O)N[C@@H](CCCCN)C(=O)N[C@@H](Cc3ccccc3)C(=O)N[C@@H](CCCNC(=N)N)C(=O)N[C@@H](CC(N)=O)C(=O)N[C@@H](CCCCN)C(N)=O)C2=O)[C@H](O)[C@H](C)O1 (stereo partly drawn) [PDC-3] (H-C(X1)GLRKRLRKFRNK-NH2)
EC50 (HeLa cells [1]; resazurin assay): 27 µM

GLRKRLRKFRNKIKEK-NH2 [sC18]
accumulation in spheroids (HEK-293 spheroids): most efficient variants
intracellular accumulation / uptake pattern (HeLa cells [2]): far lower compared to the other two novel peptides
intracellular accumulation / uptake pattern (HeLa cells [2]; listed as sC18^ΔE): accumulated in a dot-like manner within the cell interior and did not reach the nuclei
cellular uptake (HeLa cells [3]; triplicate n = 3): to a little extent
cellular uptake (HeLa cells [3]; [4]): highly significant and enhanced internalization
cytotoxicity (MCF-7 cells): slightly more toxic at higher concentrations
cell viability at 100 µM (HeLa cells [1]; concentration increased up to 100 µM, resazurin assay): ≥ 75%
concentration up to which no toxic effect was observed (HeLa cells [1]; pH 7.4, resazurin assay, n = 3 in triplicate): 50 µM
cellular uptake (HEK293 cells; triplicate n = 3): to a little extent
cellular uptake (HEK293 cells; [4]): highly significant and enhanced internalization
